Experimental data from ChEMBL document CHEMBL2331316, “Highly potent and selective cannabinoid receptor 2 agonists: initial hit optimization of an adamantyl hit series identified from high-through-put screening” (Bioorg Med Chem Lett, 2013).
In brackets after ≈: the same amount, converted by molar mass.

How the values were obtained:
[1] = target: T1, Cannabinoid receptor 1 (Homo sapiens, UniProt P21554); test: Agonist activity at human CB1 receptor by cAMP read-out assay; format: functional
[2] = target: T2, Cannabinoid receptor 2 (Homo sapiens, UniProt P34972); test: Agonist activity at human CB2 receptor by beta-arrestin recruitment assay
T2 sequence (P34972 whole entry): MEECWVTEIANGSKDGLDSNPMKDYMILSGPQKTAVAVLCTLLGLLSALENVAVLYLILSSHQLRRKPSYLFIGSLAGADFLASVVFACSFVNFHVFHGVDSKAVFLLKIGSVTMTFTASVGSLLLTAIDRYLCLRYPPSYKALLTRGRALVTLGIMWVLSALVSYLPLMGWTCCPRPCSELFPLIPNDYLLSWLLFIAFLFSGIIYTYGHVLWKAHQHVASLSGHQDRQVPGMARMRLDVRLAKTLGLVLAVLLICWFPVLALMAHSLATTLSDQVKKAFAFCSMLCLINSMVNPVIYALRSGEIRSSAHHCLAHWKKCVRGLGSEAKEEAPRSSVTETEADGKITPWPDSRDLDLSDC

[3] = target: T2, Cannabinoid receptor 2; test: Agonist activity at human CB2 receptor by cAMP read-out assay; format: functional
[4] = Metabolic stability in human microsomes assessed as maximal achievable bioavailability; format: ADME, Microsome; conditions: read-out: Stability
[5] = Solubility, of the compound by LYSA assay; format: physicochemical
[6] = target: Cannabinoid receptor 1 (Mus musculus, UniProt P47746); test: Agonist activity at mouse CB1 receptor by cAMP read-out assay; format: functional
Chain of Cannabinoid receptor 1 (Mus musculus, UniProt P47746) (P47746 whole entry): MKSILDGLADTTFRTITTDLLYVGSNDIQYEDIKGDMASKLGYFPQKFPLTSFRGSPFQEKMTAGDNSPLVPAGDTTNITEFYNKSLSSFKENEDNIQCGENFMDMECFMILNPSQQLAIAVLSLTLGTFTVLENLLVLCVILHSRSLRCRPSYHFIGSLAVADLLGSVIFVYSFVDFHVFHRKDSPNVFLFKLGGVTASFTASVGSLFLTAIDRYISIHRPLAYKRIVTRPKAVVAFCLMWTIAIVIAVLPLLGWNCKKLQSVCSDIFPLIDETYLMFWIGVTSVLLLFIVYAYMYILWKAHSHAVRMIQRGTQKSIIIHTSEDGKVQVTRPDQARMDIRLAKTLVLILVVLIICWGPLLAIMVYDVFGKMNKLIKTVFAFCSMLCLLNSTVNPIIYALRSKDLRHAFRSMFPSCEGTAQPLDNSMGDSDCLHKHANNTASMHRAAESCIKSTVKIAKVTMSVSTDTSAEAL

[7] = target: T3, Cannabinoid receptor 2 (Mus musculus, UniProt P47936); test: Binding affinity to mouse CB2 receptor
T3 sequence (P47936 whole entry): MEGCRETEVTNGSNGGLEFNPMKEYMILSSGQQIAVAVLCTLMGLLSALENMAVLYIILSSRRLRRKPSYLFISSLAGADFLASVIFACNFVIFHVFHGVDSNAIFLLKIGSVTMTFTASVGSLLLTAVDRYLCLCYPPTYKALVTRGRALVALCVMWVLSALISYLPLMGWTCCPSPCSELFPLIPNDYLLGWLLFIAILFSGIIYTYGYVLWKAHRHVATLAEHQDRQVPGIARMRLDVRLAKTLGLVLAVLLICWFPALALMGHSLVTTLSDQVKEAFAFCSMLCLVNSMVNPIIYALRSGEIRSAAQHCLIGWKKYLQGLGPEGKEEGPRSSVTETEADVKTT

[8] = target: T2, Cannabinoid receptor 2; test: Binding affinity to human CB2 receptor
[9] = target: Cannabinoid receptor 2 (Homo sapiens, UniProt P34972, Q63R); test: Agonist activity at human CB2 receptor Q63R mutant
Chain of Cannabinoid receptor 2 (Homo sapiens, UniProt P34972, Q63R) (P34972 whole entry Q63R): as the sequence (P34972 whole entry) above, with Q63R counted along it

[10] = target: T3, Cannabinoid receptor 2; test: Agonist activity at mouse CB2 receptor by cAMP read-out assay; format: functional
[11] = Permeability, Pe of the compound assessed as drug accumulation; format: ADME; conditions: not told; read-out: permeability
[12] = Permeability, Pe of the compound; format: ADME; conditions: not told; read-out: permeability
[13] = Lipophilicity, log D of the compound; format: physicochemical; conditions: octanol/water
[14] = target: T1, Cannabinoid receptor 1; test: Binding affinity to CB1 receptor (unknown origin)
[15] = target: T2, Cannabinoid receptor 2; test: Binding affinity to CB2 receptor (unknown origin)

T1 sequence (P21554 whole entry): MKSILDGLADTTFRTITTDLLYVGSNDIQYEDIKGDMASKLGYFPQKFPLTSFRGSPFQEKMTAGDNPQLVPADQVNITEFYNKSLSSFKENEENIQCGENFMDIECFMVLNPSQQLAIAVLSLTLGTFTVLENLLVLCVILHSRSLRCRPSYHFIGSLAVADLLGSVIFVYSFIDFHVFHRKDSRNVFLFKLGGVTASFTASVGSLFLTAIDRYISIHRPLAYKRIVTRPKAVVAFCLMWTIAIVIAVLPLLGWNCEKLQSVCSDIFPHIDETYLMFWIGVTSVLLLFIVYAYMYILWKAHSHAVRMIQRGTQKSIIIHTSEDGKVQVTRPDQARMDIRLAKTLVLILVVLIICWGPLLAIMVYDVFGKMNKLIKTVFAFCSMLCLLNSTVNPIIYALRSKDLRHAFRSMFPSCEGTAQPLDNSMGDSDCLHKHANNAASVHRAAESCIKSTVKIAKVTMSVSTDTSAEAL

Structure (SMILES) | EC50 [1] [nM] | EC50 [2] [nM] | EC50 [3] [nM] | Fh [4] [%] | solubility [5] [µg/mL] | EC50 [6] [nM] | Ki [7] [nM] | Ki [8] [nM] | EC50 [9] [nM] | EC50 [10] [nM] | Papp [11] [×10⁻⁶ cm/s] | Papp [12] [×10⁻⁶ cm/s] | logD [13] | Ki [14] [nM] | Ki [15] [nM]
O=C(NC(=S)N1CCCCC1)C12CC3CC(CC(C3)C1)C2 | > 10000 | 500 | 1400 | – | – | – | – | – | – | – | – | – | – | – | –
O=C(N1CCc2ccc(C(F)(F)F)cc21)C12CC3CC(CC(C3)C1)C2 | > 10000 | 750 | 15 | 36 | < 1 | > 10000 | 2800 | 2500 | 49 | 2.9 | – | – | – | – | –
CC(=O)c1ccccc1NC(=O)C12CC3CC(CC(C3)C1)C2 | > 10000 | – | 100 | – | – | – | – | – | – | – | – | – | – | – | –
O=C(N1Cc2ccccc2C1)C12CC3CC(CC(C3)C1)C2 | > 10000 | 600 | – | 51 | < 1 | > 10000 | 900 | 500 | – | 7 | 14 | 0.5 | – | – | –
Cc1cccc2c1CCN2C(=O)C12CC3CC(CC(C3)C1)C2 | > 10000 | 290 | 4 | 46 | < 1 | > 10000 | 1300 | 170 | 11 | 7 | – | – | – | – | –
COC1CCN(C(=O)C23CC4CC(CC(C4)C2)C3)c2ccccc21 (stereo not given) | > 10000 | 1300 | – | 12 | 10 (≈ 30.7 µM) | > 10000 | 5200 | 770 | 78 | 23 | 4.6 | 3.3 | 3.79 | – | –
Cc1cccc2c1N(C(=O)C13CC4CC(CC(C4)C1)C3)CC2 | > 10000 | 1600 | 55 | 51 | < 1 | > 10000 | > 10000 | 600 | 81 | 50 | – | – | – | – | –
CC1(C)CN(C(=O)C23CC4CC(CC(C4)C2)C3)c2ccccc21 | > 10000 | 900 | 16 | 39 | < 1 | > 10000 | 4900 | 500 | 36 | 40 | – | – | – | – | –
O=C(N1CCc2ccccc21)C12CC3CC(CC1C3)C2 | > 10000 | 900 | 22 | 55 | < 1 | > 10000 | > 10000 | 500 | – | 51 | 0.5 | 1.9 | 3.7 | – | –
COCCOC1CCN(C(=O)C23CC4CC(CC(C4)C2)C3)c2ccccc21 (stereo not given) | > 10000 | 900 | 20 | 5 | 97 (≈ 263 µM) | > 10000 | 1500 | 350 | 24 | 20 | 5.7 | 4.4 | 3.82 | – | –
O=C(NC12CC3CC(CC(C3)C1)C2)c1nn(CCN2CCOCC2)c2ccccc12 | – | – | – | – | – | – | – | – | – | – | – | – | – | 6.8 | 0.15
O=C(N1CCc2ccccc21)C12CC3CC(CC(C3)C1)C2 | > 10000 | 220 | – | 45 | < 1 | > 10000 | > 10000 | 460 | – | 26 | 2 | 0.4 | – | – | –
O=C(NC12CC3CC(CC(C3)C1)C2)N1Cc2ccccc2C1 | > 10000 | 700 | – | 37 | < 1 | > 10000 | 400 | 270 | 27 | 19 | 26 | 12 | 4.26 | – | –
CN1CCN(C(=O)C23CC4CC(CC(C4)C2)C3)c2ccccc21 | > 10000 | > 10000 | 29 | 10 | < 1 | > 10000 | 2800 | 500 | 71 | 22 | – | – | 4.09 | – | –
O=C(N1CCCCc2ccccc21)C12CC3CC(CC(C3)C1)C2 | – | – | > 10000 | – | – | – | – | – | – | > 10000 | – | – | – | – | –
Cc1csc(NC(=O)C23CC4CC(CC(C4)C2)C3)n1 | > 10000 | 900 | 600 | – | – | – | – | – | – | – | – | – | – | – | –
COC(=O)c1cccc(NC(=O)C23CC4CC(CC(C4)C2)C3)c1 | > 10000 | – | > 10000 | – | – | – | – | – | – | – | – | – | – | – | –
O=C(C1C2CC3CC(C2)CC1C3)N1CCc2ccccc21 (stereo not given) | > 10000 | 160 | 7 | 37 | < 1 | > 10000 | 2200 | 320 | 11 | 20 | 5 | 0.1 | – | – | –
O=C(N1CCc2cc(F)ccc21)C12CC3CC(CC(C3)C1)C2 | > 10000 | 200 | – | 52 | < 1 | > 6000 | 2400 | 200 | – | 9 | 4.7 | 2.3 | – | – | –
CCOC1CCN(C(=O)C23CC4CC(CC(C4)C2)C3)c2ccccc21 (stereo not given) | > 10000 | – | 1.8 | 6 | 17 (≈ 50.1 µM) | 5000 | > 10000 | 990 | – | 28 | 0.9 | 0.7 | 4.09 | – | –
O=C(N1CCc2ccccc21)C12CC3CC(CC(O)(C3)C1)C2 | > 10000 | 2600 | – | 90 | > 318 | – | – | – | 531 | 1000 | 25 | 10.3 | 2.77 | – | –
CCOc1ccc(NC(=O)C23CC4CC(CC(C4)C2)C3)cc1 | > 10000 | – | 1200 | – | – | – | – | – | – | – | – | – | – | – | –
O=C(N1CCCc2ccccc21)C12CC3CC(CC(C3)C1)C2 | > 10000 | > 10000 | – | 23 | < 1 | > 10000 | 4300 | 790 | 55 | 126 | – | – | – | – | –
CCOC(=O)c1ccccc1NC(=O)C12CC3CC(CC(C3)C1)C2 | > 10000 | 76 | 15 | – | – | – | – | – | – | – | – | – | – | – | –
